For assay [1], the target named is T1, recombinant human biotinylated integrin αvβ8 (Homo sapiens, UniProt P06756+P26012).
T1 construct: biotin (biotinylated heterodimer); purchased R&D Systems
Put plainly: Solid phase receptor assay for αvβ8 function. Conditions: purified integrin binding to LAP-coated plate. As for the experimental part: Solid Phase Receptor Assay for αvβ8 Function.
Purified human LAP protein (R&D Systems, Inc) diluted to 0.5 μg/ml in TBS buffer (25 mM Tris 7.4, 137 mM NaCl, 2.7 mM KCl, 1 mM CaCl2, 1 mM MgCl2, 1 mM MnCl2) was added to wells (100 μl/well) of a 96-well half-well transparent microtiter plate (Costar 3690), and incubated overnight at 4° C. Wells were washed 3 times with 150 μl TBS, and 200 μl of blocking buffer (TBS with 1% bovine serum albumin) were added. The plate was incubated for 1 hr at 37° C., and then washed 3× with TBS/0.1% bovine serum albumin. Purified recombinant human biotinylated integrin αvβ8 (R&D Systems) was diluted to 0.1 μg/ml in TBS/0.1% bovine serum albumin. Compounds were diluted into the integrin solution and then 50 μl was added to empty wells of the washed LAP-coated plate, according to a standard template, with each sample repeated in triplicate. After incubation for one hour at room temperature, the plate was washed 3× with 150 μl of TBS/0.1% BSA. 50 μl of streptavidin-conjugated horseradish peroxidase (R&D Systems) was added to the wells, and the plate incubated for 20 min at room temperature. […] Plates were read by colorimetric detection at 650 nm wavelength using a Tecan Safire II plate reader. Concentration-response curves were constructed by non-linear regression (best fit) analysis, and IC50 values were calculated for each compound.

Assay [2] concerns the target T2, αvβ3 (Homo sapiens, UniProt P05106+P06756).
T2 construct: expressed in transfected cells; host or cells: HEK 293 (293/b3)
Put plainly: 293/b3 cell adhesion assay for αvβ3 function. It counts as cell-based. Conditions: 293/b3 cells, adhesion to human vitronectin. As for the experimental part: 293/b3 Cell Adhesion Assay for αvβ3 Function.
(§1) Purified human vitronectin (Calbiochem/EMD Biosciences) diluted to 0.25 μg/ml in TS buffer (25 mM Tris 7.4, 150 mM NaCl) was added to wells (100 μl/well) of a 96-well microtiter plate (Immulon 2HB 96-well; VWR Scientific) and incubated overnight at 4° C. The solution in each well was then replaced with 200 μl of blocking buffer (TS with 1% bovine serum albumin), and the plate incubated for 1 hr at 37° C. Compounds were diluted in test tubes to 2× the peak testing concentration in cell adhesion buffer consisting of Hanks Buffered Salts Solution (HBSS, cation-free, Sigma), 0.1% bovine serum albumin, 25 mM HEPES, and 200 μM MnCl2. […] The cells were washed with the cell adhesion buffer, counted using a hemocytometer, centrifuged and resuspended in cell adhesion buffer at 3×10^6 cells/ml. […] Remaining attached cells were detected by addition of 100 μl/well p-nitrophenylphosphate (Sigma) solution (15 mg tablet dissolved in 25 ml 50 mM NaAcetate, pH5; 0.5% Triton-X-100), incubation for 30 min at 37° C., and then addition of 50 μl/well 1N NaOH to stop the enzyme reaction. Plates were read by colorimetric detection at 405 nm wavelength using a Tecan Safire II plate reader. Concentration-response curves were constructed by non-linear regression (best fit) analysis, and IC50 values were calculated for each compound. […]

Assay [3] deals with T3, αvβ5 (Homo sapiens, UniProt P06756+P18084).
T3 construct: expressed in transfected cells; host or cells: HEK 293 (293/b5)
Briefly: 293/b5 cell adhesion assay for αvβ5 function. It counts as cell-based. To be noted: 293/b5 cells, adhesion to human vitronectin. As to the method:
293/b5 Cell Adhesion Assay for αvβ5 Function.
as §1

The structures appear in SMILES notation.

T3 sequence (P06756 31-889 limits assumed): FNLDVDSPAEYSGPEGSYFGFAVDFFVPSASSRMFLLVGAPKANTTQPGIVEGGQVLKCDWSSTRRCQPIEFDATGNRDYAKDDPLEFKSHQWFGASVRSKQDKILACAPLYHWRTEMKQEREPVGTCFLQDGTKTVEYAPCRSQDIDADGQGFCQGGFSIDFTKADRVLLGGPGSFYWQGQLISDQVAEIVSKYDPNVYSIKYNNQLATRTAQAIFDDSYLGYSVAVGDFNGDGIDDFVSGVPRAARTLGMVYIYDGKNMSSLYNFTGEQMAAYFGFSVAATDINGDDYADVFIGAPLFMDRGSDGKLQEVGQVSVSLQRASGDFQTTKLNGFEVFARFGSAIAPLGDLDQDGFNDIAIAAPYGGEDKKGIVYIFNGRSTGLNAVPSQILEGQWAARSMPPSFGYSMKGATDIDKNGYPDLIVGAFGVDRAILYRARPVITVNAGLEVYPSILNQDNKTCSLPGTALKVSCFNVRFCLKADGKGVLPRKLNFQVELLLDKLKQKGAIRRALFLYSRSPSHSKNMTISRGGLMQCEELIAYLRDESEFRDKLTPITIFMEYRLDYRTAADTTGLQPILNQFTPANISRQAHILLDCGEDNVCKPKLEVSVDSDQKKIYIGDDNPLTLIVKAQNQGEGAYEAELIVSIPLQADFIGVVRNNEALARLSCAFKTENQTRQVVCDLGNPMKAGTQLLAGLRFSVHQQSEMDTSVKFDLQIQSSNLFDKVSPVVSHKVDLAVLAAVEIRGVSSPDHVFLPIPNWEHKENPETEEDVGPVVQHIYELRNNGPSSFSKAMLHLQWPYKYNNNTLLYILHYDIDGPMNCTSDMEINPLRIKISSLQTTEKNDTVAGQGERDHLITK
T3 sequence (P06756 891-1048 partner limits assumed): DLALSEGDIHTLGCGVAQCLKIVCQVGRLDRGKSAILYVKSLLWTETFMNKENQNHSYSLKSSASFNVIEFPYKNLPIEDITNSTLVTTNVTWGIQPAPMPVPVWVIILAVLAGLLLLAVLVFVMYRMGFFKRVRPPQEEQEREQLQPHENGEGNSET
T3 sequence (P18084 24-799): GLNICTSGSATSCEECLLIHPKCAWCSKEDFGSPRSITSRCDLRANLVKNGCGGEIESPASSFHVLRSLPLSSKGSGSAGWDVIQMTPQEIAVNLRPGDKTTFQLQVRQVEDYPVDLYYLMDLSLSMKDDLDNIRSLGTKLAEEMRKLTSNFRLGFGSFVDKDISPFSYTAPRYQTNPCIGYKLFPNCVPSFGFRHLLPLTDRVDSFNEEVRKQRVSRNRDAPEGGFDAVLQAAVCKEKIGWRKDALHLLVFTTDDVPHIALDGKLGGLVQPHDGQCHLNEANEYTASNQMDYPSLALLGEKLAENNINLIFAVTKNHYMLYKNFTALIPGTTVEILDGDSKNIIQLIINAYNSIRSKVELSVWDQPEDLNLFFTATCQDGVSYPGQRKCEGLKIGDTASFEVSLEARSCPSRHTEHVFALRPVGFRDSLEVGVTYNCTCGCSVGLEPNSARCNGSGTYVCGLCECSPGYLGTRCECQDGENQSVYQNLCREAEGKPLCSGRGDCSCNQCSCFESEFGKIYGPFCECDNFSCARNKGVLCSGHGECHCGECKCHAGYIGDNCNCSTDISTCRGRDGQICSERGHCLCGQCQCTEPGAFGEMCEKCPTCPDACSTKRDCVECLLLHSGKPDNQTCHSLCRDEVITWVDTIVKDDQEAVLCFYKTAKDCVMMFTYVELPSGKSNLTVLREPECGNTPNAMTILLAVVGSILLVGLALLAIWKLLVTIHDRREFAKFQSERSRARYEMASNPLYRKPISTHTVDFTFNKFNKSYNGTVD
T2 sequence (P06756 31-889 limits assumed): as the sequence (P06756 31-889 limits assumed) above
T2 sequence (P06756 891-1048 partner limits assumed): as the sequence (P06756 891-1048 partner limits assumed) above
T2 sequence (P05106 27-788): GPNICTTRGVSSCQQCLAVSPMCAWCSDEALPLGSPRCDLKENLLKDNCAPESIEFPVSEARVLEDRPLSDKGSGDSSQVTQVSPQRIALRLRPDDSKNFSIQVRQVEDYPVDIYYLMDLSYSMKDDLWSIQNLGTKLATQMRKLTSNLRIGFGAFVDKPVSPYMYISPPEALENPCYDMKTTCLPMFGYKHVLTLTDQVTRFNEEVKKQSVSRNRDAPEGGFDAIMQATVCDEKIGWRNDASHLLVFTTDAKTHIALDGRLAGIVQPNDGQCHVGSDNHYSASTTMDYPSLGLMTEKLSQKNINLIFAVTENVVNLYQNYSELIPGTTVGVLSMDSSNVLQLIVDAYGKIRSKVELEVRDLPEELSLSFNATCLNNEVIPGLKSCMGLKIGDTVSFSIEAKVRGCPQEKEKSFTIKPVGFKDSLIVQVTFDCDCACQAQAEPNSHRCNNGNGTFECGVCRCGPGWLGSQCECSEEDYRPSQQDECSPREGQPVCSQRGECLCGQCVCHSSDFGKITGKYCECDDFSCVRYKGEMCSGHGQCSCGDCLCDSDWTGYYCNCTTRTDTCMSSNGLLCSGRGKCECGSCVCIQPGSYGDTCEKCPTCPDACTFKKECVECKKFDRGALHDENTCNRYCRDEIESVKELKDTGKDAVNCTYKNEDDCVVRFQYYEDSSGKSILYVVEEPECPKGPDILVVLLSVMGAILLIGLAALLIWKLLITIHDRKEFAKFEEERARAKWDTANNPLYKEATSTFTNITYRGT
T1 sequence (P06756 31-889 limits assumed): as the sequence (P06756 31-889 limits assumed) above
T1 sequence (P06756 891-992 partner limits assumed): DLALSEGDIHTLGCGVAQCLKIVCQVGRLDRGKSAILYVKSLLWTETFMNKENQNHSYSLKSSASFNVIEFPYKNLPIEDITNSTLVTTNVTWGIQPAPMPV
T1 sequence (P26012 43-684 limits assumed): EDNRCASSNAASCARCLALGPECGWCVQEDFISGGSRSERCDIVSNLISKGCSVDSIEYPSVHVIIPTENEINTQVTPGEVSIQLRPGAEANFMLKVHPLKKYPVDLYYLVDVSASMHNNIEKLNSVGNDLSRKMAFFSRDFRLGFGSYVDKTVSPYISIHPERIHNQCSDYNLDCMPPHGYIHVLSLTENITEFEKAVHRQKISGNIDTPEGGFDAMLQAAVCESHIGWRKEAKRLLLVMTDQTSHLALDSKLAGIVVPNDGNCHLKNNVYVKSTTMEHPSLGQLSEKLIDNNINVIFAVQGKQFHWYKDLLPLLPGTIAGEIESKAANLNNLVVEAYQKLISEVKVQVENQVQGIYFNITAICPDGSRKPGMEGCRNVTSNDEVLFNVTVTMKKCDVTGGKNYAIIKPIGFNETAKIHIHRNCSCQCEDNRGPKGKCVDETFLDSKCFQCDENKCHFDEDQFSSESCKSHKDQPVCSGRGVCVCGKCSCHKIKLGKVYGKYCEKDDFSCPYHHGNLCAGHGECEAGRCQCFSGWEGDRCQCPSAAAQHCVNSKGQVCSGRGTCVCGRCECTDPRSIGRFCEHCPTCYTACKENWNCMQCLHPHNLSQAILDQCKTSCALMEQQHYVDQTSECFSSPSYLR

A word on the IC50: it is the concentration needed to halve the response being measured. As to `CC(C)(C)c1cc(Br)cc([C@H](CC(=O)O)NC(=O)CNC(=O)c2cc(O)cc(NC3=NCC(O)CN3)c2)c1` (stereo partly drawn) [Example 1, (3S)—N-[3-hydroxy-5-[(1,4,5,6-tetrahydro-5-hydroxy-2-pyrimidinyl)amino]benzoyl]glycyl-3-(3-bromo-5-tert-butylphenyl)-β-alanine], the IC50 in assay [1] stood at 0.23 nM; in assay [2], 0.8 nM; in assay [3], 51.7 nM.
